Values joined by “and” are separate entries in the source; they are usually repeats but may differ in a detail not shown here. Equal entries are not always repeated.

In the assay the test system is K24384-001-R-PDC complex spheroid growth. The assay can be described thus: Anticancer human tumor K24384-001-R-PDC patient-derived pancreatic adenocarcinoma cell line growth inhibition [AhR]. The note with it: for viability, T/C: stronger effect = lower value. An excerpt: Multicellular complex tumor spheroid response to aryl hydrocarbon receptor antagonists in combination with a variety of drugs and investigational agents in selected tumor cell lines
The current study was undertaken to assess response to aryl hydrocarbon receptor antagonists in combination with standard-of-care drugs and investigational agents in solid tumor complex spheroid models. Complex spheroids include a stromal component modeled by human endothelial cells (HUVEC) and fibroblasts modeled by human mesenchymal stem cells (MSCs). The concentration ranges selected for each drug and investigational agent were based upon clinically achievable concentrations if the clinical Cmax of the agent was known.
Compounds. The drugs and investigational agents: BAY 2416964 (NSC825713), GNF351 (NSC835774), CH-223191 (NSC835775), CPI-455 (NSC825282), aza-TdCyd (NSC777586), decitabine (NSC127716), belinostat (NSC758774), entinostat (NSC756642), pevonedistat (NSC761192), tazemetostat (NSC777109), talazoparib (NSC765396), olaparib (NSC753686), selinexor (NSC780203), nedisertib (M3814, NSC802822), bortezomib (NSC756655), venetoclax (NSC766270), doxorubicin (NSC123127), elimusertib (BAY189344, NSC800525), ceralasertib (AZD6738, NSC777638), TAK-243 (NSC785004), alisertib (NSC759677), etoposide (NSC141540), topotecan (NSC609699), eribulin (NSC707389), gemcitabine (NSC613327), carboplatin (NSC241240), cisplatin (NSC119875), and SN-38 (NSC673596) were obtained from the National Cancer Institute (NCI) Developmental Therapeutics Program Chemical Repository (32). The FDA-approved anticancer drug set is available from the Developmental Therapeutics Program at https://dtp.cancer.gov/organization/dscb/obtaining/available plates.htm. […] The stock solutions were prepared in dimethyl sulfoxide (DMSO, Sigma-Aldrich, St. Louis, MO, cat. D2650), except for the platinum compounds which were prepared in saline (Quality Biological, Gaithersburg, MD, cat. 114-055-101), at 800-fold the tested concentration and stored at -70 degrees C prior to their use. All drugs and investigational agents were tested over a range starting from a high concentration at or near the clinical Cmax and decreasing in half-log increments. If the clinical Cmax for an agent had not been determined, the highest concentration tested was 10 microM (Table 1).
Cell Culture. All cells were maintained in an incubator at 37 degrees C and 5% CO2 with 95% humidity. The PDC lines were cultured according to standard operating procedures established by the NCI PDMR (https://pdmr.cancer.gov). Briefly, all PDCs were thawed and cultured in Matrigel-coated flasks prepared with a working solution of 1X Ham's F-12 nutrient mix, without supplementation (Invitrogen, Waltham, MA, cat. 11765054), 100 U/mL penicillin-streptomycin (Invitrogen, cat. 15140122), and 2.5% Matrigel (Corning Inc., Corning, NY, cat. 354248) for the first three passages. All PDCs were cultured in complete DMEM/F-12 media containing advanced DMEM/F-12 (Invitrogen, cat. 12634028), 4.9% defined fetal bovine serum, heat inactivated (HyClone Laboratories Inc., Logan, UT, cat. SH30070.03HI), 389 ng/mL hydrocortisone (Sigma-Aldrich, cat. H4001), 9.7 ng/mL human EGF recombinant protein (Invitrogen, cat. PHG0313), 23.4 microg/mL adenine (Sigma-Aldrich, cat. A2786), 97.3 U/mL penicillin-streptomycin (Invitrogen, cat. 15140122), 1.9 mM L-glutamine (Invitrogen, cat. 25030081), and 9.7 microM Y-27632 dihydrochloride (Tocris Bioscience, Bristol, United Kingdom, cat. 1254). The PDCs were cultured in complete DMEM/F12 media without 10 microM Y-27632 dihydrochloride for at least two passages prior to the screen. The established cell lines NCI-H1341 and […] were cultured in DMEM/F-12, HEPES (Invitrogen, cat. 11330032), 5% defined fetal bovine serum (HyClone Laboratories Inc., cat. SH30070.03), ITS premix universal culture supplement [insulin (5 microg/mL), transferrin (5 microg/mL), and selenious acid (5 ng/mL)] […]

The mark [1] stands for this setting: curve of first compound, second compound 0.1 µM.
Setting [2] is: curve of first compound, second compound 0.316 µM.
Where [3] appears, read: curve of first compound, second compound 1 µM.
The mark [4] stands for this setting: curve of first compound, second compound 3.16 µM.
[5] abbreviates: curve of first compound, second compound 10 µM.
Where [6] appears, read: second compound 0.1 µM, first compound 0.0316 µM.
The mark [7] stands for this setting: second compound 0.1 µM, first compound 0.1 µM.
Where [8] appears, read: second compound 0.1 µM, first compound 0.316 µM.
Setting [9] is: second compound 0.1 µM, first compound 1 µM.
The mark [10] stands for this setting: second compound 0.316 µM, first compound 0.0316 µM.
[11] abbreviates: second compound 0.316 µM, first compound 0.1 µM.
Where [12] appears, read: second compound 0.316 µM, first compound 0.316 µM.
Where [13] appears, read: second compound 0.316 µM, first compound 1 µM.
The mark [14] stands for this setting: second compound 1 µM, first compound 0.0316 µM.
Where [15] appears, read: second compound 1 µM, first compound 0.1 µM.
Setting [16] is: second compound 1 µM, first compound 0.316 µM.
Setting [17] is: second compound 1 µM, first compound 1 µM.
The mark [18] stands for this setting: second compound 3.16 µM, first compound 0.0316 µM.
Setting [19] is: second compound 3.16 µM, first compound 0.1 µM.
Where [20] appears, read: second compound 3.16 µM, first compound 0.316 µM.
The mark [21] stands for this setting: second compound 3.16 µM, first compound 1 µM.
[22] abbreviates: second compound 10 µM, first compound 0.0316 µM.
Where [23] appears, read: second compound 10 µM, first compound 0.1 µM.
Setting [24] is: second compound 10 µM, first compound 0.316 µM.
Setting [25] is: second compound 10 µM, first compound 1 µM.
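For viability, T/C in this document: percent of DMSO vehicle-treated spheroid viability set as 100%.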

By viability, T/C is commonly meant the result in the treated group divided by that in the control group, in per cent. As a reminder, the IC50 is the concentration that gives 50% inhibition. Take `CC(C)c1c(-c2ccccc2)nc2c(C#N)c[nH]n2c1=O`: the viability, T/C was 108% and 110% and 104% (compound 0.0316 µM); 95% and 105% (2×) (compound 0.1 µM); 98.1% and 105% and 104% (compound 0.316 µM); 93.7% and 93.4% and 98.7% (compound 1 µM); 91.1% and 103% (2×) (compound 3.16 µM); 91.9% and 98.8% and 81% (compound 10 µM). For the same compound, where the note is “curve of compound”, the IC50 was > 10 µM.
Regarding `CC(CO)NC(=O)c1cc(-c2ccc(Cl)cc2)nn(-c2cnn(C)c2)c1=O` (stereo not given), the half-maximal inhibitory concentration (IC50) (compound alone, run of 05/31/2022) is > 10 µM.
For the compound `CC1COCCN1c1cc(C2(S(C)(=N)=O)CC2)nc(-c2ccnc3[nH]ccc23)n1` (stereo not given), the viability, T/C by setting is: (compound 0.0316 µM) 107% and 105% and 126%; (compound 0.1 µM) 98.2% and 113% and 97.1%; (compound 0.316 µM) 105% and 102% and 95.6%; (compound 1 µM) 85% and 85.7% and 89.4%; (compound 3.16 µM) 71.8% and 56.9% and 59.7%; (compound 10 µM) 37.3% and 32.7% and 45.1%. Besides, the concentration for half-maximal inhibition (IC50) (curve of compound) is 6.47 µM and 4.31 µM and 7.58 µM.
In the case of `COc1ccc([C@@H](O)c2cc(-c3ncnc4cc(N5CCOCC5)ccc34)c(F)cc2Cl)nn1`, the viability, T/C (compound 0.0316 µM) was 107% and 86.3% and 109%; the viability, T/C (compound 0.1 µM) is 101% (2×) and 104%; the viability, T/C (compound 0.316 µM) is 96.8% and 94.6% and 105%; the viability, T/C (compound 1 µM) was 76% and 81.3% and 72.5%; the viability, T/C (compound 3.16 µM) was 63.3% and 73.9% and 71.7%; the viability, T/C (compound 10 µM) was 37.4% and 39.9% and 49.7%. Moreover, for the setting “curve of compound”, the IC50 was 5.51 µM and 7.03 µM and > 10 µM.
On to `Cc1ccccc1N=Nc1ccc(NC(=O)c2ccnn2C)c(C)c1`, for which, under “compound alone, run of 06/14/2022”, the IC50 is > 10 µM.
On to `Cc1cncc(-c2nc(NCCc3c[nH]c4ccccc34)c3ncn(C(C)C)c3n2)c1`, for which the viability, T/C (compound 10 µM) is 10.4% [middle of 20 runs]. The half-maximal inhibitory concentration (IC50) (compound alone, run of 06/06/2022) was 5.54 µM [middle of 23 runs].
On to `COc1cccc2c1C(=O)c1c(O)c3c(c(O)c1C2=O)CC(O)(C(=O)CO)CC3OC1CC(N)C(O)C(C)O1` (stereo not given) + CC(CO)NC(=O)c1cc(-c2ccc(Cl)cc2)nn(-c2cnn(C)c2)c1=O, for which the half-inhibitory concentration (IC50) was 0.078 µM under setting [1]; 0.0832 µM under setting [2]; 0.0712 µM under setting [3]; 0.0677 µM under setting [4]; 0.0524 µM under setting [5]. Besides, the viability, T/C runs as follows: under setting [6], 60.8%; under setting [7], 45.7%; under setting [8], 26.5%; under setting [9], 8.5%; (second compound 0.1 µM, first compound 3.16 µM) 2.41%; (second compound 0.1 µM, first compound 10 µM) 9.56%. For the same compound, the viability, T/C was 62% under setting [10]; 46.9% under setting [11]; 22.6% under setting [12]; 5.23% under setting [13]; 3.01% (second compound 0.316 µM, first compound 3.16 µM); 8.52% (second compound 0.316 µM, first compound 10 µM). Also, the viability, T/C was 64.4% under setting [14]; 43% under setting [15]; 22.3% under setting [16]; 5.55% under setting [17]; 2.67% (second compound 1 µM, first compound 3.16 µM); 9.64% (second compound 1 µM, first compound 10 µM). Further, the viability, T/C under setting [18] is 58.1%; the viability, T/C under setting [19] was 44.5%; the viability, T/C under setting [20] was 24.4%; the viability, T/C under setting [21] is 4.46%; the viability, T/C (second compound 3.16 µM, first compound 3.16 µM) is 3.77%; the viability, T/C (second compound 3.16 µM, first compound 10 µM) is 8.98%. The viability, T/C is 52.8% under setting [22]; 46.4% under setting [23]; 17.9% under setting [24]; 2.07% under setting [25]; 3.16% (second compound 10 µM, first compound 3.16 µM); 10.2% (second compound 10 µM, first compound 10 µM).
In the case of `Nc1ncn(C2CC(O)C(CO)O2)c(=O)n1` (stereo not given) + CC(CO)NC(=O)c1cc(-c2ccc(Cl)cc2)nn(-c2cnn(C)c2)c1=O, the IC50 reads like this: under setting [1], > 1 µM; under setting [2], > 1 µM; under setting [3], > 1 µM; under setting [4], > 1 µM; under setting [5], > 1 µM. Also, the viability, T/C is, setting by setting: (second compound 0.1 µM, first compound 0.00316 µM) 110%; (second compound 0.1 µM, first compound 0.01 µM) 116%; under setting [6], 109%; under setting [7], 65.8%; under setting [8], 87.7%; under setting [9], 67.5%. Besides, the viability, T/C was 105% (second compound 0.316 µM, first compound 0.00316 µM); 111% (second compound 0.316 µM, first compound 0.01 µM); 109% under setting [10]; 76.2% under setting [11]; 69.9% under setting [12]; 63.8% under setting [13]. Besides, the viability, T/C is 98.2% (second compound 1 µM, first compound 0.00316 µM); 93.4% (second compound 1 µM, first compound 0.01 µM); 112% under setting [14]; 95.8% under setting [15]; 75.4% under setting [16]; 62.8% under setting [17]. The viability, T/C by setting is: (second compound 3.16 µM, first compound 0.00316 µM) 74.3%; (second compound 3.16 µM, first compound 0.01 µM) 102%; under setting [18], 81.3%; under setting [19], 67.9%; under setting [20], 59.2%; under setting [21], 57.3%. Further, the viability, T/C was 80.4% (second compound 10 µM, first compound 0.00316 µM); 83.1% (second compound 10 µM, first compound 0.01 µM); 79.3% under setting [22]; 67.1% under setting [23]; 58.2% under setting [24]; 63.2% under setting [25].
